Laboratory results published in article PMC11040653, “Fluorescent carbazole-derived α-amino acids: structural mimics of tryptophan” (Chemical Science, 2024).
No end group written: not given here. 13e = not defined here

How the values were obtained:
[1] = Solvatochromism of 13c–13e (emission in various solvents); type: physicochemical; settings: emission in solvents of different polarity
Procedure: Measurements were performed at five different concentrations. […] Integrated fluorescence intensity was plotted as a function of the measured absorbance and a linear fit was calculated. […]
Subscript ST signifies the quantities associated with the quantum yield standard. Subscript X signifies the quantities associated with the novel compound. […]

[2] = UV-Vis absorption and fluorescence emission spectra of amino acids 13a–e; type: physicochemical; settings: for λ Em / λ Em (second wavelength) / λ Abs: 5 μM; for λ Em / λ Em (second wavelength): fluorescence; for λ Abs: UV-Vis
Procedure: (§1) Next, the photophysical properties of amino acids 13a–13e were measured.[22,23] As it was important to identify an amino acid that could be used as a probe for different applications, the photophysical properties were assessed in both an organic solvent (methanol) and water (Table 2).
(§2) 5. Photophysical Data for a-Amino Acids 13a–e
(§3) Absorption and emission data were recorded using the following instruments:
(§4) 1. UV-Vis spectra were recorded on a Perkin Elmer Lamda 25 instrument. Fluorescence spectra were recorded on a Shimadzu RF-5301PC spectrofluorophotometer. Emission data were measured using excitation and emission bandpass filters of 3 nm.
2. Both UV-Vis spectra and fluorescence spectra were recorded on a Horiba Duetta Fluorescence and Absorbance spectrometer. Absorbance spectra were recorded with an integration time of 0.05 s, and a band pass of 5 nm. Fluorescence spectra were recorded with and excitation and emission band pass of 5 nm, an integration time of 2 s, and with detector accumulations set to 1. […]

[3] = Fluorescence quantum yield (comparative method, anthracene and L-tryptophan standards) and brightness; type: physicochemical; settings: for Φ F (quantum yield): anthracene and L-tryptophan as standards, five concentrations, absorption below 0.1
Procedure: as §1, §2, §3, §4
2. Both UV-Vis spectra and fluorescence spectra were recorded on a Horiba Duetta Fluorescence and Absorbance spectrometer. Absorbance spectra were recorded with an integration time of 0.05 s, and a band pass of 5 nm. Fluorescence spectra were recorded with and excitation and emission band pass of 5 nm, an integration time of 2 s, and with detector accumulations set to 1.
Quantum yields were determined using a comparative method against two standards. Anthracene (Φ = 0.27, in ethanol) and ʟ-tryptophan (Φ = 0.14 in water) were used as standard references.9 The integrated fluorescence intensity of each compound was determined from the emission spectra given.
Measurements were performed at five different concentrations. Concentrations were chosen to ensure the absorption value was below 0.1 to avoid re-absorption effects. Integrated fluorescence intensity was plotted as a function of the measured absorbance and a linear fit was calculated. The resultant gradient was then used to calculate the quantum yield, using the equation below: […]
Subscript ST signifies the quantities associated with the quantum yield standard. Subscript X signifies the quantities associated with the novel compound. GradX is the determined gradient associated with the novel compound. GradST is the determined gradient associated with quantum yield standard. η is the refractive index of the solvent used in the fluorescence measurements. η = 1.333 for water, 1.361 for ethanol and 1.331 for methanol.

[4] = Circular dichroism spectroscopy of modified TrpZip1 peptide; type: physicochemical
Procedure: Following successful preparation of the carbazole α-amino acids, these were investigated as structural mimics of tryptophan. The effect of substituting amino acid 13e for a tryptophan residue in a well-characterised designed peptide was studied. The beta hairpin TrpZip1 was chosen as a model of beta structure.[21] An Fmoc-derivative of amino acid 13e was prepared under standard conditions and incorporated into the peptide using SPPS protocols. The resulting peptide, 14 (Table 1) was purified by reverse phase HPLC and characterised using high resolution electrospray ionisation mass spectrometry.

[5] = parameters: method as in PMID 30957824; settings: cited from earlier work
Text: In combination with fluorescent spectroscopy, α-amino acids have also been used for molecular imaging, providing a method to study and visualise cellular processes in real time.[3] […] Furthermore, their occurrence at multiple sites within a protein can complicate spectroscopic analysis. To overcome these issues, many studies utilise extrinsic fluorescent labels.[4] However, these are typically large chromo ...

[6] = ethanol; standard reference; ref 9 (supplement); cited from earlier work
Procedure: page 24: 5. Photophysical Data for a-Amino Acids 13a–e Absorption and emission data were recorded using the following instruments: 1. UV-Vis spectra were recorded on a Perkin Elmer Lamda 25 instrument. Fluorescence spectra were recorded on a Shimadzu RF-5301PC spectrofluorophotometer. Emission data were measured using excitation and emission bandpass filters of 3 nm. 2. Both UV-Vis spectra and fluorescence spectra were recorded on a Horiba Duetta Fluorescence and Absorbance spectrometer. Absorbance spectra were recorded with an integration time of 0.05 s, and a band pass of 5 nm. Fluorescence ...

Compound | ε (molar attenuation coefficient) ([2]; MeOH) | λ Em ([2]; MeOH) | λ Em (second wavelength) ([2]; MeOH) | ε (molar attenuation coefficient) ([2]; Water) | λ Abs ([2]; Water) | λ Em ([2]; Water) | Brightness ([3]; MeOH) | Φ F (quantum yield) ([3]; MeOH) | Brightness ([3]; Water) | Φ F (quantum yield) ([3]; Water) | λ Abs ([2]; MeOH) | further results
Cl.N[C@@H](Cc1ccc2[nH]c3cc(C(F)(F)F)ccc3c2c1)C(=O)O [amino acid 13e, (2S)-2-amino-3-(7-trifluoromethyl-9H-carbazol-3’-yl)propanoic acid hydrochloride] | 11 600 cm^−1 M^−1 | 365 nm | 378 nm | 14 000 cm^−1 M^−1 | 348 nm | 380 nm | 700 cm⁻¹ M⁻¹ | 0.06 | 3360 cm⁻¹ M⁻¹ | 0.24 | – | solvatochromism [1]: minimal solvatochromism; increase in brightness in water ([3]; water relative to methanol): ~5 fold; ε and quantum yield in water ([3]; water relative to methanol): enhanced in water
Cl.N[C@@H](Cc1ccc2[nH]c3ccccc3c2c1)C(=O)O [amino acid 13a, (2S)-2-Amino-3-(9H-carbazol-3’-yl)propanoic acid hydrochloride] | 16 500 cm^−1 M^−1 | 350 nm | 366 nm | 8800 cm⁻¹ M⁻¹ | 341 nm | 352 nm | 5120 cm⁻¹ M⁻¹ | 0.31 | 2460 cm⁻¹ M⁻¹ | 0.28 | 342 nm | λ Em (second wavelength) ([2]; Water): 366 nm
peptide 14: TrpZip1 modified with amino acid 13e (SWTWEGNK-{13e-Thr-Trp-Lys-NH2}; reading uncertain) | – | – | – | – | – | – | – | – | – | – | – | secondary structure ([4]; CD, carbazole amino acid 13e replacing tryptophan in TrpZip1): preserved the original secondary structure; CD maximum ([4]; circular dichroism): 228 nm; CD minimum ([4]; circular dichroism): 214 nm; near-UV CD signal ([4]; circular dichroism, indicative of ordered aromatic side chains): 280–310 nm
N#Cc1cccc2[nH]cc(C[C@H](N)C(=O)O)c12 [compound 3, L-4-cyanotryptophan] | – | – | – | – | – | – | – | – | – | – | – | fluorescence lifetime [5]: long fluorescence lifetime
COc1ccc2c(c1)[nH]c1ccc(C[C@H](N)C(=O)O)cc12.Cl [amino acid 13b, (2S)-2-Amino-3-(7-methoxy-9H-carbazol-3’-yl)propanoic acid hydrochloride] | 12 700 cm^−1 M^−1 | 354 nm | – | 12 100 cm^−1 M^−1 | 331 nm | 357 nm | 4450 cm⁻¹ M⁻¹ | 0.35 | 5200 cm⁻¹ M⁻¹ | 0.43 | 329 nm | –
Cl.N[C@@H](Cc1ccc2[nH]c3ccc4ccccc4c3c2c1)C(=O)O [amino acid 13c, (2S)-2-Amino-3-(7H-benzo[c]carbazol-10-yl)propanoic acid hydrochloride] | 16 100 cm^−1 M^−1 | 371 nm | 388 nm | 10 900 cm^−1 M^−1 | – | 377 nm | 12 240 cm^−1 M^−1 | 0.76 | 6430 cm⁻¹ M⁻¹ | 0.59 | 351 nm | solvatochromism [1]: minimal solvatochromism; λ Em (second wavelength) ([2]; Water): 390 nm
c1ccc2cc3ccccc3cc2c1 [Anthracene] | – | – | – | – | – | – | – | – | – | – | – | quantum yield of standard [6]: 0.27
